One data set deals with α-glucosidase enzyme (Saccharomyces cerevisiae, UniProt P53341). It counts as biochemical. How it is done:
To find out the α-glucosidase inhibition, kinetic studies were carried out using different concentrations of the inhibitors (0.0624, 0.3, 0.125, 0.4 mM) and different concentrations of substrate inhibitor (p-nitrophenol R-D maltoside NMP). Samples of 0.1, 0.2, 0.4, 0.8, and 1.0 mM (0.2 mg/mL) concentration were prepared in de-ionized water with the enzyme. PIPES buffer was used to adjust the pH of the solution. This solution was incubated for 30 min at 25 °C and the absorbance was recorded on an ELISA reader in 96-well plates. Kinetic parameters like Vmax, AICs, Km, and R2 were calculated using sigma plot enzyme kinetic software.

Chain of α-glucosidase enzyme (P53341 whole entry): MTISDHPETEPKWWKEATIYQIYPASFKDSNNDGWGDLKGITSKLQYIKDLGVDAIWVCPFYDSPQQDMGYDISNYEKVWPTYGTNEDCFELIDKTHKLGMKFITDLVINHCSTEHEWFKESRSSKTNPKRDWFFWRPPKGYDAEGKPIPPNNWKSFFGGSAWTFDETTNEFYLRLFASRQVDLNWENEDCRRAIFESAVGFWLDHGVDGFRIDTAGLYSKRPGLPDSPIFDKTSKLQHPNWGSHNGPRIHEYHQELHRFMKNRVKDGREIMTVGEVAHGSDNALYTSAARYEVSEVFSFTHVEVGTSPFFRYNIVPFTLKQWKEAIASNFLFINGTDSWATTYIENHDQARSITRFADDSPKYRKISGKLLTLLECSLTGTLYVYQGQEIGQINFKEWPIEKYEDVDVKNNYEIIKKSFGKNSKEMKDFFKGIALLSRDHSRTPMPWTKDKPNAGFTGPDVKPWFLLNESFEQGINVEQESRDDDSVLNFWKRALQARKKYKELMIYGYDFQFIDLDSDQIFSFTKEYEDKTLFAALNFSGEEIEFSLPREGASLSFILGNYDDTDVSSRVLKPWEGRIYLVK

Molecule `O=[N+]([O-])c1ccc(/C(Cn2nnc3ccccc32)=N\N=C\c2cc(Cl)cc(Cl)c2O)cc1` [Compound 10, 2-((E)-(((E)-2-(1H-benzo[d][1,2, 3]triazol-1-yl)-1-(4-nitrophenyl)ethylidene) hydrazono)methyl)-4,6-dichlorophenol] had a melting point of 197 to 198 °C. In the case of `COc1cccc(/C(Cn2nnc3ccccc32)=N\N=C\c2cc(Cl)cc(Cl)c2O)c1` [Compound 1, 2-((E)-(((E)-2-(1H-benzo[d][1,2, 3]triazol-1-yl)-1-(3-methoxyphenyl)ethylidene) hydrazono)methyl)-4,6-dichlorophenol], the melting point was in the range of 195 to 196 °C. Besides, the “fold lower potency than compound (9)” value at α-glucosidase enzyme (comparator compound 9) is reported as “four-fold”.

As to `O=[N+]([O-])c1cccc(/C(Cn2nnc3ccccc32)=N\N=C\c2cc(Cl)cc(Cl)c2O)c1` [Compound 9, 2-((E)-(((E)-2-(1H-benzo[d][1,2, 3]triazol-1-yl)-1-(3-nitrophenyl)ethylidene) hydrazono)methyl)-4,6-dichlorophenol], the melting point lay in the range of 197 to 198 °C. Moreover, the “potency relative to standard acarbose (fold greater)” value at α-glucosidase enzyme (compared to standard acarbose) is listed as “nine-fold”. Turning to `Oc1c(Cl)cc(Cl)cc1/C=N/N=C(/Cn1nnc2ccccc21)c1ccc(Cl)cc1Cl` [Compound 13, 2-((E)-(((E)-2-(1H-benzo[d][1,2, 3]triazol-1-yl)-1-(2,4-dichlorophenyl)ethylidene) hydrazono)methyl)-4,6-dichlorophenol], the melting point lay in the range of 199 to 200 °C. At α-glucosidase enzyme (comparator compound 1), the “fold enhancement of α-glucosidase activity relative to compound (1)” value is “three-fold”. The molecule `O=[N+]([O-])c1ccc(/C(Cn2nnc3ccccc32)=N\N=C\c2cccc([N+](=O)[O-])c2)cc1` [Compound 11, 1-((E)-2-(((E)-3-nitrobenzylidene)hydrazono)-2-(4-nitrophenyl)ethyl)-1H-benzo[d] [1,2, 3]triazole] displayed a melting point of 191 to 192 °C. On the same count and under the same terms, the figure for `O=[N+]([O-])c1ccc(/C=N/N=C(/Cn2nnc3ccccc32)c2ccc(Cl)cc2Cl)cc1` [Compound 15, 1-((E)-2-(2,4-dichlorophenyl)-2-(((E)-4-nitrobenzylidene)hydrazono)ethyl)-1H-benzo[d] [1,2, 3]triazole] is 194 to 195 °C. With `Clc1ccc(/C=N/N=C(/Cn2nnc3ccccc32)c2ccc(Br)cc2)cc1Cl` [Compound 17, 1-((E)-2-(4-bromophenyl)-2-(((E)-3,4-dichlorobenzylidene)hydrazono)ethyl)-1H-benzo[d] [1,2, 3]triazole], the melting point lay within 198 to 199 °C. The “potency against α-glucosidase compared with standard acarbose (in words)” value at α-glucosidase enzyme is “less potent than standard acarbose”. In the case of `Brc1ccc(/C(Cn2nnc3ccccc32)=N\N=C\c2c3ccccc3cc3ccccc23)cc1` [Compound 4, 1-((E)-2-(((E)-anthracen-9-ylmethylene)hydrazono)-2-(4-bromophenyl)ethyl)-1H-benzo[d] [1,2, 3]triazole], the melting point was 201 to 202 °C. The “potency against α-glucosidase compared with standard acarbose (in words)” value at α-glucosidase enzyme was “less potent than standard acarbose”.

Molecule `O=[N+]([O-])c1cccc(/C=N/N=C(/Cn2nnc3ccccc32)c2ccc(Br)cc2)c1` [Compound 3, 1-((E)-2-(4-bromophenyl)-2-(((E)-3-nitrobenzylidene)hydrazono)ethyl)-1H-benzo[d] [1,2, 3]triazole] showed a melting point of 196 to 197 °C. The molecule `O=[N+]([O-])c1ccc(/C=N/N=C(/Cn2nnc3ccccc32)c2ccc([N+](=O)[O-])cc2)cc1` [Compound 12, 1-((E)-2-(((E)-4-nitrobenzylidene)hydrazono)-2-(4-nitrophenyl)ethyl)-1H-benzo[d] [1,2, 3]triazole] returned a melting point of 191 to 192 °C. At α-glucosidase enzyme (comparator scaffold 11), the “inhibition profile relative to scaffold (11)” value is on record as “half”. The molecule `O=[N+]([O-])c1cccc(/C=N/N=C(/Cn2nnc3ccccc32)c2ccc(Cl)cc2Cl)c1` [Compound 14, 1-((E)-2-(2,4-dichlorophenyl)-2-(((E)-3-nitrobenzylidene)hydrazono)ethyl)-1H-benzo[d] [1,2, 3]triazole] gave a melting point of 194 to 195 °C. `Brc1ccc(/C(Cn2nnc3ccccc32)=N\N=C\c2ccc3ccccc3c2)cc1` [Compound 7, 1-((E)-2-(4-bromophenyl)-2-(((E)-naphthalen-2-ylmethylene)hydrazono)ethyl)-1H-benzo[d] [1,2, 3]triazole] had a melting point of 196 to 197 °C. Moreover, at α-glucosidase enzyme, the “potency against α-glucosidase compared with standard acarbose (in words)” value was “less potent than standard acarbose”.

`Oc1c(Cl)cc(Cl)cc1/C=N/N=C(/Cn1nnc2ccccc21)c1ccc(Br)cc1` [Compound 5, 2-((E)-(((E)-2-(1H-benzo[d][1,2, 3]triazol-1-yl)-1-(4-bromophenyl)ethylidene) hydrazono)methyl)-4,6-dichlorophenol] gave a melting point of 196 to 197 °C. In addition, on α-glucosidase enzyme (comparator scaffold 10), the “fold lowering of enzymatic activity relative to scaffold (10)” value is on record as “four-fold”. In turn, `O=[N+]([O-])c1ccc(/C=N/N=C(/Cn2nnc3ccccc32)c2ccc(Br)cc2)cc1` [Compound 6, 1-((E)-2-(4-bromophenyl)-2-(((E)-4-nitrobenzylidene)hydrazono)ethyl)-1H-benzo[d] [1,2, 3]triazole] came in with a melting point of 196 to 197 °C. Besides, at α-glucosidase enzyme (comparator compound 3), the “potency relative to compound (3)” value is on record as “half”.

Regarding `O=Cc1ccc(/C=N/N=C(/Cn2nnc3ccccc32)c2ccc(Br)cc2)cc1` [Compound 8, 4-((E)-(((E)-2-(1H-benzo[d][1,2, 3]triazol-1-yl)-1-(4-bromophenyl)ethylidene) hydrazono)methyl)benzaldehyde], the melting point was in the range of 193 to 194 °C. The “potency against α-glucosidase compared with standard acarbose (in words)” value on α-glucosidase enzyme was “less potent than standard acarbose”. `O=[N+]([O-])c1ccc(/C(Cn2nnc3ccccc32)=N\N=C\c2ccc(O)cc2)cc1` [Compound 20, 4-((E)-(((E)-2-(1H-benzo[d][1,2, 3]triazol-1-yl)-1-(4-nitrophenyl)ethylidene) hydrazono)methyl)phenol]: the melting point was 190 to 191 °C. On to `COc1cccc(/C(Cn2nnc3ccccc32)=N\N=C\c2cccc([N+](=O)[O-])c2)c1` [Compound 2, 1-((E)-2-(3-methoxyphenyl)-2-(((E)-3-nitrobenzylidene)hydrazono)ethyl)-1H-benzo[d] [1,2, 3]triazole], for which the melting point was 192 to 193 °C. Also, the “fold lower potency than compound (12)” value on α-glucosidase enzyme (comparator compound 12) is listed as “two-fold”. On to `O=[N+]([O-])c1ccc(/C(Cn2nnc3ccccc32)=N\N=C\c2ccc(Cl)c(Cl)c2)cc1` [Compound 19, 1-((E)-2-(((E)-3,4-dichlorobenzylidene)hydrazono)-2-(4-nitrophenyl)ethyl)-1H-benzo[d] [1,2, 3]triazole], for which the melting point was in the range of 194 to 195 °C.

The melting point is the temperature, or range, at which the solid turns liquid.

For the origin of these results see publication PMC9860641, “Synthesis, In Vitro α-Glucosidase Inhibitory Activity and Molecular Docking Study of New Benzotriazole-Based Bis-Schiff Base Derivatives” (Pharmaceuticals, 2022).
